Results: PMC3783656 (Bioorganic & medicinal chemistry letters, 2013)
Values after ≈ are worked out from the molar mass of the structure shown.

Experiments:
[1] = biological target: PRKCQ (Homo sapiens, UniProt Q04759); test: KINOMEscan kinase binding; conditions: 10 μM; % of kinase remaining bound to bead-bound ligand
[2] = Microsome stability, rat liver microsomes; conditions: rat liver microsomes; second value of h/r/m
[3] = biological target: T1, FLT3 (Homo sapiens, UniProt P36888); test: KINOMEscan kinase binding; conditions: 10 μM; % of kinase remaining bound to bead-bound ligand
T1 sequence (P36888 27-993): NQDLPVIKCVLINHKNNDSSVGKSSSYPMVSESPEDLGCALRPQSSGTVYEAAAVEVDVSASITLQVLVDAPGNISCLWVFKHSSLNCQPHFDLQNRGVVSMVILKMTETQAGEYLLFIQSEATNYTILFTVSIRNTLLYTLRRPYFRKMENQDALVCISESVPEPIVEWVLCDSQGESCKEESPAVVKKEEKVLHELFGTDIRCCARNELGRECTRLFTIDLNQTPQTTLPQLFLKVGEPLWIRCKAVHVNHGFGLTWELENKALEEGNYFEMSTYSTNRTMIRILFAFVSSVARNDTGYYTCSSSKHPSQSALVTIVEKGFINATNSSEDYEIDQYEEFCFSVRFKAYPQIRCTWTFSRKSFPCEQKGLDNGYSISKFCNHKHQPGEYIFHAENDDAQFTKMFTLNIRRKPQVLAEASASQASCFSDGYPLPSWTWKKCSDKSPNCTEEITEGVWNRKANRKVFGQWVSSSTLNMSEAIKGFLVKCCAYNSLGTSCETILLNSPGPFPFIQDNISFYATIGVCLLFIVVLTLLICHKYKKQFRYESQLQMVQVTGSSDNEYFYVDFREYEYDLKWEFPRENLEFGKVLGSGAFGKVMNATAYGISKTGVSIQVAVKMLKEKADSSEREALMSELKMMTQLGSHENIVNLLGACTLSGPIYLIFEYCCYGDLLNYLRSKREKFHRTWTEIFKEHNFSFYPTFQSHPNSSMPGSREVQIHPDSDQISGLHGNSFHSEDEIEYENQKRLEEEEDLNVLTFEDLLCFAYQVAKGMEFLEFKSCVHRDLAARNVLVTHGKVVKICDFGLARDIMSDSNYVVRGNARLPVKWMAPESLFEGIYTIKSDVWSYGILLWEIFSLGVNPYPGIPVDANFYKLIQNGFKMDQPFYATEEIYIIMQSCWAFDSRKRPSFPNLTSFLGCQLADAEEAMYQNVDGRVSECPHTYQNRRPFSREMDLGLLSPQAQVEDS

[4] = biological target: CSNK1E [CK1ε] (Homo sapiens, UniProt P49674); test: KINOMEscan kinase binding; conditions: 10 μM; % of kinase remaining bound to bead-bound ligand
[5] = tested on: FLT3 (N841L); test: KINOMEscan kinase binding; conditions: 10 μM; % of kinase remaining bound to bead-bound ligand
[6] = biological target: T2, CK1δ (Homo sapiens, UniProt P48730); test: CK1δ inhibition, Reaction Biology Corp.; assay type: biochemical; conditions: read-out: IC50 CK1δ; data obtained by Reaction Biology Corp.
[7] = Mouse PK studies; assay type: in vivo; conditions: IV dosing, 1 mg/kg, 10/10/80 DMSO/Tween/water
[8] = Microsome stability, human liver microsomes; conditions: human liver microsomes; first value of h/r/m
[9] = biological target: CSNK1A1 (Homo sapiens, UniProt P48729); test: KINOMEscan kinase binding; conditions: 10 μM; % of kinase remaining bound to bead-bound ligand
[10] = biological target: T1, FLT3; test: Off-target kinase inhibition, Reaction Biology Corporation; assay type: biochemical; conditions: read-out: IC50 for inhibition of off-target kinase FLT3; data obtained by Reaction Biology Corporation
[11] = biological target: LATS2 (Homo sapiens, UniProt Q9NRM7); test: KINOMEscan kinase binding; conditions: 10 μM; % of kinase remaining bound to bead-bound ligand
[12] = biological target: NLK (Homo sapiens, UniProt Q9UBE8); test: KINOMEscan kinase binding; conditions: 10 μM; % of kinase remaining bound to bead-bound ligand
[13] = Microsome stability, mouse liver microsomes; conditions: mouse liver microsomes; third value of h/r/m
[14] = Solubility in DMEM/10% FBS; assay type: physicochemical
[15] = biological target: FLT3 (D835H) (Homo sapiens, UniProt P36888, D835H); test: KINOMEscan kinase binding; conditions: 10 μM; % of kinase remaining bound to bead-bound ligand
[16] = Solubility in PBS buffer; assay type: physicochemical
[17] = biological target: CSNK1A1L (Homo sapiens, UniProt Q8N752); test: KINOMEscan kinase binding; conditions: 10 μM; % of kinase remaining bound to bead-bound ligand
[18] = biological target: CSNK1D [CK1δ] (Homo sapiens, UniProt P48730); test: KINOMEscan kinase binding; conditions: 10 μM; % of kinase remaining bound to bead-bound ligand
[19] = biological target: T2, CK1δ; test: Kinetic analysis; assay type: biochemical; conditions: ATP competitive
[20] = biological target: CDK7 (Homo sapiens, UniProt P50613); test: KINOMEscan kinase binding; conditions: 10 μM; % of kinase remaining bound to bead-bound ligand
[21] = tested on: FLT3 (ITD); test: KINOMEscan kinase binding; conditions: 10 μM; % of kinase remaining bound to bead-bound ligand
[22] = biological target: BMP2K (Homo sapiens, UniProt Q9NSY1); test: KINOMEscan kinase binding; conditions: 10 μM; % of kinase remaining bound to bead-bound ligand
[23] = biological target: CDK4/cyclin D1 (Homo sapiens, UniProt P11802); test: KINOMEscan kinase binding; conditions: 10 μM; % of kinase remaining bound to bead-bound ligand
[24] = biological target: MARK2 (Homo sapiens, UniProt Q7KZI7); test: KINOMEscan kinase binding; conditions: 10 μM; % of kinase remaining bound to bead-bound ligand
[25] = biological target: ROCK2 (Homo sapiens, UniProt O75116); test: KINOMEscan kinase binding; conditions: 10 μM; % of kinase remaining bound to bead-bound ligand
[26] = biological target: CDK4/cyclin D3 (Homo sapiens, UniProt P11802); test: KINOMEscan kinase binding; conditions: 10 μM; % of kinase remaining bound to bead-bound ligand
[27] = tested on: human melanoma A375 cell line; test: MTT assay against A375 melanoma cells; assay type: cell-based; conditions: read-out: MTT assay A375 EC50; human A375 melanoma cell line
[28] = biological target: MAST1 (Homo sapiens, UniProt Q9Y2H9); test: KINOMEscan kinase binding; conditions: 10 μM; % of kinase remaining bound to bead-bound ligand
[29] = biological target: CDK13 (Homo sapiens, UniProt Q14004); test: KINOMEscan kinase binding; conditions: 10 μM; % of kinase remaining bound to bead-bound ligand
[30] = biological target: RIOK3 (Homo sapiens, UniProt O14730); test: KINOMEscan kinase binding; conditions: 10 μM; % of kinase remaining bound to bead-bound ligand
[31] = biological target: FLT3 (D835Y) (Homo sapiens, UniProt P36888, D835Y); test: KINOMEscan kinase binding; conditions: 10 μM; % of kinase remaining bound to bead-bound ligand
[32] = tested on: 442 kinases; test: DiscoverRX KINOMEscan analysis of 442 kinases; assay type: binding; conditions: 10 μM, KINOMEscan of 442 kinases
[33] = biological target: TAOK3 (Homo sapiens, UniProt Q9H2K8); test: KINOMEscan kinase binding; conditions: 10 μM; % of kinase remaining bound to bead-bound ligand
[34] = biological target: FLT3 (K663Q) (Homo sapiens, UniProt P36888, K663Q); test: KINOMEscan kinase binding; conditions: 10 μM; % of kinase remaining bound to bead-bound ligand
[35] = biological target: MELK (Homo sapiens, UniProt Q14680); test: KINOMEscan kinase binding; conditions: 10 μM; % of kinase remaining bound to bead-bound ligand

LATS2, sequence (Q9NRM7 whole entry): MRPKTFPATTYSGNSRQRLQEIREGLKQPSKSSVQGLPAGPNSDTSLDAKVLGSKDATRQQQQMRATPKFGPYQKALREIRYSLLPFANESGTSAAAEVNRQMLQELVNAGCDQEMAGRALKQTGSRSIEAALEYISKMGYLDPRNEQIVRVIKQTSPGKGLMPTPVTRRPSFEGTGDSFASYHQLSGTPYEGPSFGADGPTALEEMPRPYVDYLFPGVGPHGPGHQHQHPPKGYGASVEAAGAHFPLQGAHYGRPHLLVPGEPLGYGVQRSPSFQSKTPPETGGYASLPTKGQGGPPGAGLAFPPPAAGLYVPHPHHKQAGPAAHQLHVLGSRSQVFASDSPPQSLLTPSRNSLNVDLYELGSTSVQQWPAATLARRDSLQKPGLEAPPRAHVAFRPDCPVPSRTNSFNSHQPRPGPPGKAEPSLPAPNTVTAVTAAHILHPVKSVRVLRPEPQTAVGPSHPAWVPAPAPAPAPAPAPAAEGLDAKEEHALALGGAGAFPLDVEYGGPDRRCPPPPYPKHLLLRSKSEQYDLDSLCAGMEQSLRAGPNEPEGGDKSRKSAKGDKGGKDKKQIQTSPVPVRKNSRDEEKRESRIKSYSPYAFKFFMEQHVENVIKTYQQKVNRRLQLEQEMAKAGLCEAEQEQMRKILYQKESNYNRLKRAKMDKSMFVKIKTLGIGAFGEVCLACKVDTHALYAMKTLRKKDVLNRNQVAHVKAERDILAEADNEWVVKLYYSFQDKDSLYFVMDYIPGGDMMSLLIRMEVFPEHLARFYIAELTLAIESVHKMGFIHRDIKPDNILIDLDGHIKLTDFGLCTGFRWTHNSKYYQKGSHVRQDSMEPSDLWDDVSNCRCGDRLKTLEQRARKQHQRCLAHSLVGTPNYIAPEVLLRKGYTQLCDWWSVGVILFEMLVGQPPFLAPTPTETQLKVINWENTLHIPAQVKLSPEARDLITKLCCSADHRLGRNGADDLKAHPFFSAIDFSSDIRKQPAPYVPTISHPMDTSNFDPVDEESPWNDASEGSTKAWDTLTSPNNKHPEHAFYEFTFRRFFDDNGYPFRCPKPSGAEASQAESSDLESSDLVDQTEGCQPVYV
MARK2, sequence (Q7KZI7 whole entry): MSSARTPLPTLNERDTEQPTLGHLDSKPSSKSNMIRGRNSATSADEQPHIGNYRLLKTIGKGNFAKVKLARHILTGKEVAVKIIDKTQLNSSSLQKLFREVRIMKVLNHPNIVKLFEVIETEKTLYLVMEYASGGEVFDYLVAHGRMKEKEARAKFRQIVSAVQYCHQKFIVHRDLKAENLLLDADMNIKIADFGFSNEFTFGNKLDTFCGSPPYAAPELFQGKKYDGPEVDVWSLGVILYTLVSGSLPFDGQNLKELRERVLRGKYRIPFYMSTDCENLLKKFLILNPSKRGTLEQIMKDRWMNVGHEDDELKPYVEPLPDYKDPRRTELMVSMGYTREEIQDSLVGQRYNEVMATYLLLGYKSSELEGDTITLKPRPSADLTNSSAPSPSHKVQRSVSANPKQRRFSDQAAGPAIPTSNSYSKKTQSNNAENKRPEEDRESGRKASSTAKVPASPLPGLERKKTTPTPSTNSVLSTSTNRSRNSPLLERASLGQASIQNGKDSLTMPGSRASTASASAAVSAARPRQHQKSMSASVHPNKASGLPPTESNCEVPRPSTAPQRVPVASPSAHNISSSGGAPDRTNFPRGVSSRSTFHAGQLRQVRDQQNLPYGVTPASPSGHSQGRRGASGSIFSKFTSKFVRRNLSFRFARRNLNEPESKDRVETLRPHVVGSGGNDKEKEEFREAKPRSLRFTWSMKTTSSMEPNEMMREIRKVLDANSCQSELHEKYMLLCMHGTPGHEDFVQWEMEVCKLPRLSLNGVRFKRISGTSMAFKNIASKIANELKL
CSNK1A1, sequence (P48729 whole entry): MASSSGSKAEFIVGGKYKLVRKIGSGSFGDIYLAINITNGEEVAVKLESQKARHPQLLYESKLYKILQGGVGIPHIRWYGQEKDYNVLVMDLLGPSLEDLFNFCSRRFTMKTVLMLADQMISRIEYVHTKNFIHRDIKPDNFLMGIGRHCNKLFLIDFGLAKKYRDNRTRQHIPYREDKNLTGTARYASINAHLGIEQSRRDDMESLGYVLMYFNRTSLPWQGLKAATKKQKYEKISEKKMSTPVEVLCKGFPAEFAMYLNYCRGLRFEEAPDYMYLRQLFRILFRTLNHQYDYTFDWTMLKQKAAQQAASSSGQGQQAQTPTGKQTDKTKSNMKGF
CDK13, sequence (Q14004 whole entry): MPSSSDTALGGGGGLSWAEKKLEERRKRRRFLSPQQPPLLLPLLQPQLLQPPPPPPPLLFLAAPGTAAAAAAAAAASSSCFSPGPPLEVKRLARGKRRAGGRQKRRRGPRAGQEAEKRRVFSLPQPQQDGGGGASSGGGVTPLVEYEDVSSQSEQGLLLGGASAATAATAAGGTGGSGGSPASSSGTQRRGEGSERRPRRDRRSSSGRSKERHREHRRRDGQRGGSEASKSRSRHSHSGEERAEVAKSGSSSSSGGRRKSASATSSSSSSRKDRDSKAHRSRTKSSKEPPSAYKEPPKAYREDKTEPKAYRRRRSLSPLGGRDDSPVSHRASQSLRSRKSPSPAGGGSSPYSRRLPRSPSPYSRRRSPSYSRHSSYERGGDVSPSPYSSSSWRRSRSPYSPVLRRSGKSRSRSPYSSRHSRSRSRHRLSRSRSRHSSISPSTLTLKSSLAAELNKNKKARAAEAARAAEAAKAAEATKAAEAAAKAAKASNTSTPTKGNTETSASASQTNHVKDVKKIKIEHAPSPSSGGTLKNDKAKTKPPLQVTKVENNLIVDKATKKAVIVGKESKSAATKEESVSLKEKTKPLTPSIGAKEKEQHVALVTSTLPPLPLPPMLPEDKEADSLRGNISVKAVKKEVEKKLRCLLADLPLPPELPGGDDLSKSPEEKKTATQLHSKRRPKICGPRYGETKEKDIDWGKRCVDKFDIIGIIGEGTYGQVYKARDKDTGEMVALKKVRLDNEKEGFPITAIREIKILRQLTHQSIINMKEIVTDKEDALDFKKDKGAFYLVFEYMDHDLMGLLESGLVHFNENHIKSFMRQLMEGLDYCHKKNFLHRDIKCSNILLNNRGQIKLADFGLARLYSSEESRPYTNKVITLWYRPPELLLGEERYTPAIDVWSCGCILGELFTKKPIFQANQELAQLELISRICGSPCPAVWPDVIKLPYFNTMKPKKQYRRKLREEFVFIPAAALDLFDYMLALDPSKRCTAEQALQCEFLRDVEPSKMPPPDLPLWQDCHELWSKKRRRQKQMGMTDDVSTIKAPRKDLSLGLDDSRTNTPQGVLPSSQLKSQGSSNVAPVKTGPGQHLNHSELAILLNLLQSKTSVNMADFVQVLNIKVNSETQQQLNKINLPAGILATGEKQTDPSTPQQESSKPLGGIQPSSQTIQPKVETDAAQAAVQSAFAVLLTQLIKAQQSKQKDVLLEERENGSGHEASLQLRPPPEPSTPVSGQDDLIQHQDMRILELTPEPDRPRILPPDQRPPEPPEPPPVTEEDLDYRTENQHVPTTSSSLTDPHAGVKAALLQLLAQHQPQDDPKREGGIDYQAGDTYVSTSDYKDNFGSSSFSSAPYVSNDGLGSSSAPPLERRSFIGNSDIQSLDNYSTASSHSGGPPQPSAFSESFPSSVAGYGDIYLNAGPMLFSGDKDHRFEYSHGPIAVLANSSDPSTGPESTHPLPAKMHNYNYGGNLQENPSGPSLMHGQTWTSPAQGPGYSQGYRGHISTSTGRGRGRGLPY
T2 sequence (P48730 whole entry): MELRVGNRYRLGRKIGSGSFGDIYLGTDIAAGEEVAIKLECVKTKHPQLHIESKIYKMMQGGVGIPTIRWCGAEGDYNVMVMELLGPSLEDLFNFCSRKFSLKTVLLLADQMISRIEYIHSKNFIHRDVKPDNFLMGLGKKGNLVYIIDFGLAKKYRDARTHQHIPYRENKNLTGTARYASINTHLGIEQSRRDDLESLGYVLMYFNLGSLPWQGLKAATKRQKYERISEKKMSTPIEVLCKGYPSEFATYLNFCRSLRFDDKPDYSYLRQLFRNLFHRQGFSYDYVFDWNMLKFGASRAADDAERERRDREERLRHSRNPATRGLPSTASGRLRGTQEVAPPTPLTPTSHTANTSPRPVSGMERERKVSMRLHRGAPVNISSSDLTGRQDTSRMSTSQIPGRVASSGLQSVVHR
PRKCQ, sequence (Q04759 whole entry): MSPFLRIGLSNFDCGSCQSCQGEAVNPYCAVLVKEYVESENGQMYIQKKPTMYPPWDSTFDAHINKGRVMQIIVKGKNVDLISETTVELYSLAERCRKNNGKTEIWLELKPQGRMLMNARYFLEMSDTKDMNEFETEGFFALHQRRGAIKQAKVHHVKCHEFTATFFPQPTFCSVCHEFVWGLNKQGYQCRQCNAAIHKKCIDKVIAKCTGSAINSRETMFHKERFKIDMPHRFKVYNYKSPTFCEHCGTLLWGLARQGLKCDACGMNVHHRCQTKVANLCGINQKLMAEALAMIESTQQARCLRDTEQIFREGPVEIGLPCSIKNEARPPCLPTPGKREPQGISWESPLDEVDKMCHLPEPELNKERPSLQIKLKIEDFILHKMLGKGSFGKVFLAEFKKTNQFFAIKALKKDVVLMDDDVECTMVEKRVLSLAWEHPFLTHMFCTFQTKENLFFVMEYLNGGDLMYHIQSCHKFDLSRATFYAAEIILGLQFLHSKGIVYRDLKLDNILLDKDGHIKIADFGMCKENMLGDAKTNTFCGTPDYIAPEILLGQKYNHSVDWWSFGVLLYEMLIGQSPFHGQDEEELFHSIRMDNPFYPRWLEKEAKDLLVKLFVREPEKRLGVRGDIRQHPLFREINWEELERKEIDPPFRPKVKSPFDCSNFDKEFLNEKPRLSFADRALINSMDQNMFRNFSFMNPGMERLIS
CSNK1D [CK1δ], sequence (P48730 whole entry): as the sequence (P48730 whole entry) above

| Compound | % control activity, PRKCQ [1] | % control activity, FLT3 [3] | AUC [7] | Cl [7] | Cmax [7] | T1/2 [7] | % control activity, CSNK1A1 [9] | IC50 [10] | % control activity, LATS2 [11] | % control activity, CSNK1A1L [17] | % control activity, CDK7 [20] | % control activity, FLT3 (ITD) [21] | % control activity, BMP2K [22] | % control activity, CDK4/cyclin D1 [23] | % control activity, MARK2 [24] | % control activity, CDK4/cyclin D3 [26] | EC50 [27] | % control activity, CDK13 [29] | % control activity, RIOK3 [30] | also measured |
| --- | --- | --- | --- | --- | --- | --- | --- | --- | --- | --- | --- | --- | --- | --- | --- | --- | --- | --- | --- | --- |
| O=[N+]([O-])c1cccc2[nH]c(CNc3nc(N4CCOCC4)nc4c3ncn4-c3ccsc3)nc12 [SR-1277] | 100% | 3.4% | 1.26 µM·h | 2.8 mL/min/kg | 1.2 µM | 1.42 h | 63% | 305 nM | 100% | 9.6% | 72% | 3.7% | 6.2% | 56% | 100% | 56% | 22 nM | 1% | 9.6% | Microsome stability T1/2 (rat) [2]: 5 min; % control activity, CSNK1E [CK1ε] [4]: 0.5%; % control activity, FLT3 (N841L) [5]: 11%; IC50 [6]: 49 nM; Microsome stability T1/2 (human) [8]: 7 min; % control activity, NLK [12]: 38%; Microsome stability T1/2 (mouse) [13]: 2 min; Solubility [14]: 1 µM (≈ 0.478 µg/mL); % control activity, FLT3 (D835H) [15]: 7.3%; Solubility [16]: 1 µM (≈ 0.478 µg/mL); % control activity, CSNK1D [CK1δ] [18]: 4.2%; Ki [19]: 69 nM; % control activity, ROCK2 [25]: 100%; % control activity, MAST1 [28]: 100%; % control activity, FLT3 (D835Y) [31]: 11% |
| Fc1cccc(-n2cnc3c(NCc4nc5c(F)c(F)ccc5[nH]4)nc(N4CCOCC4)nc32)c1 [SR-3029] | 88% | 3.7% | 6.35 µM·h | 5.5 mL/min/kg | 7.3 µM | 0.90 h | 22% | 3000 nM | 26% | 22% | 38% | 19% | 39% | 4.4% | 7.3% | 19% | 86 nM | 100% | 100% | Number of off-target kinases inhibited ≥90% [32]: 6; % control activity, TAOK3 [33]: 34%; % control activity, FLT3 (K663Q) [34]: 12%; % control activity, MELK [35]: 22% |
